# Test results published in patent US20090023186A1, “USE OF VALPROIC ACID FOR ENHANCING PRODUCTION OF RECOMBINANT PROTEINS IN MAMMALIAN CELLS” (EXCELLGENE SA, priority 2007, published 2009).
# Tested on: CHO DG44 cells
# Assay: Combination with IDMTs, IgG batch yield by ELISA (Example 6)
# Type: cell-based, Chinese Hamster
# Details: VPA 0.5 mmol/l; no addition = 100%; day 5 after transfection
# Description: 10 million suspension-adapted HEK293E cells were resuspended in 0.5 ml of Ex-Cell 293 HEK 293 serum-free medium with 4 mmol/l L-glutamine (Cat. No. 14571C-[…]; Lot No. 6A0093; SAFC Biosciences, Lenexa, Kans., USA, “Ex-Cell” medium; note: “Ex-Cell” medium-as used herein-refers to a medium comprising 4 mmol/l L-glutamine) in a 50-ml filter tube each (TPP AG, Trasadingen, Switzerland; Cat. No. 87050, Lot 20050174). In a separate set, 10 million suspension-adapted CHO DG44 cells were resuspended in 0.5 ml of ProCHO5 serum-free medium with 4 mmol/[…] hypoxanthine and 0.194 g/l thymidine (BioWhittaker (Lonza), Belgium; Cat. No. BE12-[…]; Lot No. 7MB0040; “ProCHO5” medium; note: “ProCHO5” medium-as used herein-refers to a medium comprising 4 mmol/[…] hypoxanthine and 0.194 g/l thymidine) in a 50-ml filter tube each (TPP AG, Trasadingen, Switzerland; Cat. No. 87050, Lot 20050174). Then 12.5 μg plasmid DNA at a concentration of 1 μg/μl was added in each tube with the following composition 50% (6.25 μg) p-LC (SEQ ID NO: 1) 50% (6.25 μg) p-HC (SEQ ID NO: 3). Plasmid p-LC comprises the genetic information for the production of the light chain of an IgG antibody, plasmid p-HC comprises the genetic information for the production of the heavy chain of an IgG antibody. The particular vector constructs used in the present invention can also be obtained from the inventors. The inventors can be contacted via e-mail at […]. Moreover, commercial services do exist that produce any desired nucleotide sequence even comprising several kilobase pairs including complete expression cassettes in plasmid backgrounds (e.g., Invitrogen, Carlsbad, USA; Geneart, Germany.) Thus, providing the genetic sequence information of the plasmids should enable one of ordinary skill in the art to order the plasmids of the present invention at one of the commercial services listed. After shortly mixing the DNA with the cells by gentle shaking, 25 μg of 25-kd linear polyethyleneimine (“PEI”; Polysciences, Eppelheim, Germany; [2]) were added at a concentration of 1 μg/μl to each of the tubes. After shortly mixing by gentle shaking, the filter tubes containing the cells together with the DNA and PEI were transferred into an orbital shaker (Kühner Shaker Cabinet ISF-4-W, “Kühner shaker”, Kühner AG, Birsfelden, Switzerland), and the cells were incubated for 4 hours at 37° C. in a 5% CO2 atmosphere under shaking at 180 rpm. After that time, 4.5 ml of Ex-Cell medium were added to each of the filter tubes containing HEK 293 cells and 4.5 ml of Pro-CHO5 were added to each of the filter tubes containing CHO DG44 cells. Then, valproic acid was added to each of the tubes at the corresponding final concentration. In addition, the following chemicals were added to the corresponding tubes at a final concentration of: […] Azacytidine was purchased from Sigma-Aldrich Chemie GmbH, Industriestrasse 25, CH-9471 Buchs SG, Catalog Number A1287-1 VL. RG108 was purchased from Sigma-Aldrich Chemie GmbH, Industriestrasse 25, CH-9471 Buchs SG, Catalog Number R8279-10MG. The cells then were returned into the Kuhner shaker and incubated at 37° C. in a 5% CO2 atmosphere under shaking at 180 rpm. […] In short, Goat anti-human kappa light chain IgG (Biosource) was used for coating the ELISA-plates, and with AP-conjugated goat anti-human gamma chain IgG (Biosource) the synthesized IgG1 was detected. […] Absorption was measured at 405 nm against 490 nm using a microplate reader (SPECTRAmaxTM340; Molecular Devices, Palo Alto, Calif., USA).
compound,measurement,value
"CCCC(CCC)C(=O)O [VPA, valproic acid]",Fold increase in batch yield over control,170% ± 20%
